Measured values taken from patent US12024721B2, “Method of differentiating human pluripotent stem cells to podocytes” (Wisconsin Alumni Research Foundation, priority 2017, dated 2024).

Key:
hPSCs [1] = assay: Primitive streak induction of hPSCs by Wnt activation (brachyury immunofluorescence / flow cytometry); format: cell-based, human
Protocol: Thus, as a first step toward differentiating hPSCs into podocytes, induced hPSCs (iPSCs) were seeded on a Matrigel®-coated surface at a density of ˜2×10^4 cells/cm^2 in mTeSR®1. After 3 days of expansion to a density of 6×10^4 cells/cm^2, the hPSCs were treated with 6 μM CHIR99201 for 48 hr in serum-free and albumin-free podocyte medium 1 (PM1: DMEM/F12, 1% MEM-NEAA, 0.5% GlutaMAX, 0.1 mM β-mercaptoethanol) (FIG. 1A). […] After 48 hr CHIR99201 treatment in PM1, the medium was switched to serum-free podocyte medium 2 (PM2: human endothelial serum-free medium (hESFM), 2% B-27®) and cultured to day 16. The kinetics of primitive streak induction were assessed by immunofluorescence and qRT-PCR. […] At day 0, differentiation was initiated by treating cells with 6 μM CHIR99021 (Selleckchem) in podocyte medium 1 (PM1): DMEM/Ham's F12 (Thermo Fisher), 100×MEM nonessential amino acids (Thermo Fisher), 200× GlutaMAX (Thermo Fisher), and 0.1 mM β-mercaptoethanol (Sigma) for 2 days. After 48 hr, medium was changed to podocyte medium 2 (PM2): human Endothelial Serum-Free Medium (hESFM) (Thermo Fisher) supplemented with 50× B-27®. […] Cells were stained with primary and secondary antibodies diluted in 0.5% BSA plus 0.1% Triton-X 100 as described.^34 Data were collected on a FACS Caliber flow cytometer (Beckton Dickinson) and analyzed using FlowJo®. […]

hPSCs [2] = details: 6 μM, undifferentiated hPSCs, serum-free and albumin-free medium, after 24 hours; cited from earlier work
[3] = system: BMP-induced SMAD1/5/8 phosphorylation; assay: Phosphorylated SMAD Western blot after dorsomorphin treatment of differentiating cells; format: cell-based, human; details: added from days 1-3 of differentiation; P-SMAD at day 3; 0 to 10 μM tested
Protocol: Singularized IMR90-4 hPSCs were seeded on 12-well plates coated with Matrigel®, Synthemax® or vitronectin and expanded for 3 days in mTeSR®1. Podocyte differentiation was initiated with treatment using 6 μM CHIR (CHIR99021) for 48 h in PM1 followed by treatment with different combinations of 0.1 μM or 1 μM RA, 50 ng/mL BMP7 and 50 ng/mL FGF2 from day 2 to day 6 in PM2. […] (D, E) Expression of phosphorylated SMAD was assessed by Western blot after cells were treated with dorsomorphin (0 μM to 10 μM) from day 1 to day 3 or from day 3 to day 4. […] Data were collected from three independent replicates and are plotted as mean±SEM. *p<0.05. ***p<0.001. […] Cells were dissociated with Accutase® and rinsed with PBS twice before being lysed with RIPA (ROCKLAND) in the presence of 1% Halt Protease and Phosphatase Inhibitor Cocktail (Pierce). Protein concentration was determined by a BCA assay kit (Thermo Fisher) according to manufacturer's instructions. Samples containing 30 μg of total protein were loaded onto pre-cast 10% Tris-Glycine SDS/PAGE gels (Invitrogen) under denaturing conditions and transferred to a nitrocellulose membrane. After blocking with 5% non-fat milk in TBST, the membrane was incubated with primary antibody (Table 1) overnight at 4° C. […]

IMR90-4 hPSCs = assay: WT1 expression at day 6 by Western blot after treatment with BMP7, RA, FGF2 from day 2 to day 6; format: cell-based, human; details: treatment day 2 to day 6 in PM2
Protocol: FIGS. 3A-3L Wnt signaling activation alone is sufficient to differentiate hPSCs into nephron progenitor cells. (A) Schematic of podocyte differentiation factor identification. Singularized IMR90-4 hPSCs were seeded on 12-well plates coated with Matrigel®, Synthemax® or vitronectin and expanded for 3 days in mTeSR®1. Podocyte differentiation was initiated with treatment using 6 μM CHIR (CHIR99021) for 48 h in PM1 followed by treatment with different combinations of 0.1 μM or 1 μM RA, 50 ng/mL BMP7 and 50 ng/mL FGF2 from day 2 to day 6 in PM2. (B) Cells at day 6 were assessed by Western blot for the expression level of WT1. (C) Expression level was quantified via Image J. The expression was first normalized to β-actin and then compared to WT1 expression in the absence of FGF2, RA and BMP7. (D, E) Expression of phosphorylated SMAD was assessed by Western blot after cells were treated with dorsomorphin (0 μM to 10 μM) from day 1 to day 3 or from day 3 to day 4. (F, G) Expression of BMP7 at day 1 and day 2 was verified by immunofluorescence and Western blot of cell lysate. (H, I) Cells were differentiated in the presence or absence of 1 μM dorsomorphin treatment from day 1 to day 3 and at day 16 were assessed for expression of PAX2 and WT1 by flow cytometry. Data were collected from three independent replicates and are plotted as mean±SEM. *p<0.05. ***p<0.001. […]

[4] = system: IMR90-4 iPSC-derived podocytes; assay: Apoptosis assay: dead cells by trypan blue after TGF-β1; format: cell-based, human; details: 5 or 50 ng/mL, 24 hr, day 16 podocytes; control 2%
Protocol: (§1) At day 16, cells were treated with 500 ng/mL Ang II for 6 hr and phalloidin staining was used to assess changes in cytoskeletal structure. White arrows indicate the cells with peripheral F-actin. (B) More than 200 cells over 15 images were analyzed and the percentage of cells with peripherally-organized actin was calculated for control and Ang II-treated cells. Data are presented as mean percentage±SEM of three independent experiments over 15 images. Scale bars, 100 μm. (C) At day 16, cells were treated with 5 ng/mL and 50 ng/mL TGF-β1 for 24 hr. Detached cells were collected from the medium and combined with Accutase®-dissociated cells from the substrate. Cells were treated with trypan blue and the numbers of cells incorporating and excluding trypan blue were counted on a hemocytometer. Percentage of dead cells was calculated as the number of cells that incorporated trypan blue divided by the total cell number. […]
(§2) Podocytes uptake albumin via endocytosis and degrade albumin in lysosomes^52,53. We assessed the ability of day 16 iPSC-derived podocytes to endocytose Alexa Fluor 555-labeled albumin in a temperature-dependent manner. […]
(§3) Differentiated podocytes at day 16 were treated with 500 ng/ml Ang II for 6 hr or […] TGF-β1 for 24 hr. […] The cells treated with TGF-β1 after 24 hr were assessed by counting dead cells with trypan blue exclusion.

[5] = system: IMR90-4 iPSC-derived podocytes; assay: Contractility assay: actin reorganization (phalloidin staining) after Ang II; format: cell-based, human; details: 500 ng/mL, 6 hr, day 16 podocytes; control about 20%
Protocol: as §1, §2, §3

## Cc1c[nH]c(-c2cnc(NCCNc3ccc(C#N)cn3)nc2-c2ccc(Cl)cc2Cl)n1 [CHIR99021]
hPSCs [1]; 6 μM alone, podocyte permissive medium, three different hPSC lines
  ability alone to direct hPSC lines into intermediate mesoderm, nephron progenitors and mature podocytes: sufficient
hPSCs [1]; 6 μM, 24 hr treatment, PM1, iPSCs on Matrigel
  cells expressing the primitive streak marker brachyury (positive population): ~100%
hPSCs [2]
  population expressing primitive streak markers (prior study): uniform population of cells expressing primitive streak markers

## c1cc(-c2cnn3cc(-c4ccc(OCCN5CCCCC5)cc4)cnc23)ccn1 [dorsomorphin]
[3]
  dorsomorphin concentration at which SMAD phosphorylation was completely inhibited: higher than 5 μM

## FGF2: fibroblast growth factor, exogenous growth factor
IMR90-4 hPSCs
  effect on WT1 expression in the hPSC-derived podocytes: diminished

## TGF-β1: induces cell death in primary and immortalized podocytes
[4]
  percentage of dead cells (trypan blue uptake): 15%

## angiotensin II [Ang II, induces podocyte damage by altering cytoskeletal structure and inducing contractility]
[5]
  percentage of cells with peripheral actin: Over 50%

B1: BMP7: bone morphogenetic protein, exogenous growth factor (protein, UniProt P18075 293-431, looked up)
Bone morphogenetic protein 7: STGSKQRSQNRSKTPKNQEALRMANVAENSSSDQRQACKKHELYVSFRDLGWQDWIIAPEGYAAYYCEGECAFPLNSYMNATNHAIVQTLVHFINPETVPKPCCAPTQLNAISVLYFDDSSNVILKKYRNMVVRACGCH
IMR90-4 hPSCs
  effect on WT1 expression in the hPSC-derived podocytes: diminished
